Data: the NIST ThermoML archive (doi:10.1016/j.tca.2013.09.006)

Columns and labels:
[1] = mn = molality of the nth substance listed, in mol/kg; details: 101 kPa, Liquid; for mass density: Vibrating tube method; for speed of sound: vibrating tube:WF =
[2] = 101 kPa, Liquid; for mass density: Vibrating tube method; for speed of sound: vibrating tube

C[C@H](N)C(=O)N[C@@H](C)C(=O)O [L-alanyl-L-alanine] + O
[1]
Details | mass density, 305.15 K [kg/m3] | mass density, 310.15 K [kg/m3] | mass density, 315.15 K [kg/m3] | speed of sound, 305.15 K [m/s] | speed of sound, 310.15 K [m/s] | speed of sound, 315.15 K [m/s]
m1 = 0.00215 | 995.223 | 993.535 | 991.641 | 1514.2 | 1524.5 | 1532.9
m1 = 0.00421 | 995.35 | 993.662 | 991.767 | 1514.4 | 1524.8 | 1533
m1 = 0.00596 | 995.458 | 993.769 | 991.873 | 1514.5 | 1524.9 | 1533.1
m1 = 0.00831 | 995.604 | 993.913 | 992.016 | 1514.7 | 1525.1 | 1533.2
m1 = 0.00955 | 995.68 | 993.989 | 992.092 | 1514.9 | 1525.3 | 1533.4
m1 = 0.01169 | 995.812 | 994.12 | 992.222 | 1515 | 1525.5 | 1533.6
m1 = 0.01422 | 995.968 | 994.275 | 992.376 | 1515.2 | 1525.6 | 1533.7
m1 = 0.01594 | 996.074 | 994.38 | 992.48 | 1515.3 | 1525.8 | 1533.9
m1 = 0.01778 | 996.187 | 994.493 | 992.592 | 1515.5 | 1526 | 1534.1
m1 = 0.01983 | 996.314 | 994.618 | 992.716 | 1515.7 | 1526.2 | 1534.2

CC(C)C[C@H](NC(=O)[C@H](C)N)C(=O)O [L-alanyl-L-leucine] + O
[1]
Details | mass density, 305.15 K [kg/m3] | mass density, 310.15 K [kg/m3] | mass density, 315.15 K [kg/m3] | speed of sound, 305.15 K [m/s] | speed of sound, 310.15 K [m/s] | speed of sound, 315.15 K [m/s]
m1 = 0.00185 | 995.164 | 993.476 | 991.582 | 1514.3 | 1524.7 | 1533.2
m1 = 0.00389 | 995.246 | 993.556 | 991.661 | 1514.4 | 1525 | 1533.4
m1 = 0.00579 | 995.323 | 993.631 | 991.734 | 1514.6 | 1525.2 | 1533.7
m1 = 0.00813 | 995.416 | 993.723 | 991.825 | 1514.7 | 1525.4 | 1533.9
m1 = 0.00966 | 995.478 | 993.783 | 991.884 | 1514.9 | 1525.7 | 1534
m1 = 0.0122 | 995.579 | 993.883 | 991.982 | 1515 | 1525.9 | 1534.3
m1 = 0.01422 | 995.66 | 993.962 | 992.06 | 1515.1 | 1526 | 1534.5
m1 = 0.01589 | 995.727 | 994.027 | 992.124 | 1515.3 | 1526.3 | 1534.7
m1 = 0.01753 | 995.792 | 994.092 | 992.188 | 1515.5 | 1526.6 | 1534.9
m1 = 0.02055 | 995.913 | 994.21 | 992.304 | 1515.6 | 1526.7 | 1535

O [water]
[2]
Details | mass density [kg/m3] | speed of sound [m/s]
305.15 K | 995.09 | 1513.5
310.15 K | 993.403 | 1523.5
315.15 K | 991.51 | 1532.2

CC(C)[C@H](NC(=O)[C@H](C)N)C(=O)O [L-alanyl-L-valine] + O
[1]
Details | mass density, 305.15 K [kg/m3] | mass density, 310.15 K [kg/m3] | mass density, 315.15 K [kg/m3] | speed of sound, 305.15 K [m/s] | speed of sound, 310.15 K [m/s] | speed of sound, 315.15 K [m/s]
m1 = 0.00201 | 995.187 | 993.499 | 991.606 | 1514.3 | 1524.8 | 1533.5
m1 = 0.00414 | 995.289 | 993.601 | 991.707 | 1514.5 | 1525 | 1533.7
m1 = 0.00605 | 995.381 | 993.692 | 991.798 | 1514.6 | 1525.2 | 1534
m1 = 0.00791 | 995.471 | 993.781 | 991.886 | 1514.8 | 1525.5 | 1534.1
m1 = 0.01019 | 995.58 | 993.89 | 991.994 | 1515 | 1525.7 | 1534.3
m1 = 0.01179 | 995.657 | 993.966 | 992.07 | 1515.2 | 1525.9 | 1534.4
m1 = 0.01396 | 995.761 | 994.07 | 992.173 | 1515.4 | 1526.1 | 1534.6
m1 = 0.01551 | 995.835 | 994.143 | 992.246 | 1515.6 | 1526.4 | 1534.8
m1 = 0.01805 | 995.957 | 994.264 | 992.366 | 1515.8 | 1526.7 | 1535
m1 = 0.01971 | 996.037 | 994.343 | 992.445 | 1515.9 | 1526.9 | 1535.2

CC1(C)SC2C(NC(=O)C(N)c3ccccc3)C(=O)N2C1C(=O)O (centres undefined) + O
[1]
Details | mass density, 305.15 K [kg/m3] | mass density, 310.15 K [kg/m3] | mass density, 315.15 K [kg/m3] | speed of sound, 305.15 K [m/s] | speed of sound, 310.15 K [m/s] | speed of sound, 315.15 K [m/s]
m1 = 0.0005 | 995.062 | 993.352 | 991.353 | 1513.7 | 1523.7 | 1532.2
m1 = 0.002 | 995.271 | 993.569 | 991.665 | 1514.8 | 1524.8 | 1533
m1 = 0.004 | 995.458 | 993.755 | 991.87 | 1516 | 1526 | 1534
